# Experimental data taken from ChEMBL document CHEMBL5291721, “A preclinical secondary pharmacology resource illuminates target-adverse drug reaction associations of marketed drugs” (Nat Commun, 2023).
# Columns and labels:
# [1] = biological target: Voltage-gated inwardly rectifying potassium channel KCNH2 (Homo sapiens, UniProt Q12809); format: functional; conditions: read-out: AC50
# [2] = biological target: 3',5'-cyclic-AMP phosphodiesterase 4D (Homo sapiens, UniProt Q08499); format: functional
# D(1A) dopamine receptor = D(1A) dopamine receptor (Homo sapiens, UniProt P21728); format: functional, cell-based
# [3] = biological target: T1, 5-hydroxytryptamine receptor 2C (Homo sapiens, UniProt P28335)
# T1 sequence (P28335 whole entry): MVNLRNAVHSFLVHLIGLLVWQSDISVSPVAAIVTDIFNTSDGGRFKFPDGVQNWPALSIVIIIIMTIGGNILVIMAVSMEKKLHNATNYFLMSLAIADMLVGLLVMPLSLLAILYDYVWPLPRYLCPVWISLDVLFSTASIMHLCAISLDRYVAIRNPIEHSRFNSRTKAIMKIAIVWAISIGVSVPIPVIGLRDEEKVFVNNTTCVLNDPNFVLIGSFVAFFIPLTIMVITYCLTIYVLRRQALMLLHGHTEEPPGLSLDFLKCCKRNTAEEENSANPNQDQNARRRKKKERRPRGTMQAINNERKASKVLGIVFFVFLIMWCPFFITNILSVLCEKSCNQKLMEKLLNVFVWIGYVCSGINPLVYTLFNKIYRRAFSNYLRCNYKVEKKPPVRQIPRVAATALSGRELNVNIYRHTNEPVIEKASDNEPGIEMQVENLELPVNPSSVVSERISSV
# Melanocortin receptor 3 = Melanocortin receptor 3 (Homo sapiens, UniProt P41968)
# [4] = biological target: cGMP-inhibited 3',5'-cyclic phosphodiesterase 3A (Homo sapiens, UniProt Q14432); format: functional
# [5] = biological target: T2, 5-hydroxytryptamine receptor 3A (Homo sapiens, UniProt P46098); format: functional
# T2 sequence (P46098 whole entry): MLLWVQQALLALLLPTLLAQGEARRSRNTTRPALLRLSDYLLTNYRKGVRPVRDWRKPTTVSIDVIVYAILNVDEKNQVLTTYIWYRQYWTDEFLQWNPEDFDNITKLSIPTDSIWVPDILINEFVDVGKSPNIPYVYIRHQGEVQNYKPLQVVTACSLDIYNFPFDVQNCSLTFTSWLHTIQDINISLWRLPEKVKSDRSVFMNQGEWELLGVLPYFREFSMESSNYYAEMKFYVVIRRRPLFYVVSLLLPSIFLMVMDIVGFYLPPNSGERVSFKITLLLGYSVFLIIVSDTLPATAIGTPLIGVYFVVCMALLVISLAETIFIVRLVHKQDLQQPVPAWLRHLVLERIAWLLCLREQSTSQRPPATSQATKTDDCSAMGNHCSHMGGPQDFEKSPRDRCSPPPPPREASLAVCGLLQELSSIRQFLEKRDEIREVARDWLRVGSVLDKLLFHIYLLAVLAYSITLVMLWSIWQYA
# [6] = biological target: T3, Alpha-2A adrenergic receptor (Homo sapiens, UniProt P08913); format: functional, cell-based
# T3 sequence (P08913 whole entry): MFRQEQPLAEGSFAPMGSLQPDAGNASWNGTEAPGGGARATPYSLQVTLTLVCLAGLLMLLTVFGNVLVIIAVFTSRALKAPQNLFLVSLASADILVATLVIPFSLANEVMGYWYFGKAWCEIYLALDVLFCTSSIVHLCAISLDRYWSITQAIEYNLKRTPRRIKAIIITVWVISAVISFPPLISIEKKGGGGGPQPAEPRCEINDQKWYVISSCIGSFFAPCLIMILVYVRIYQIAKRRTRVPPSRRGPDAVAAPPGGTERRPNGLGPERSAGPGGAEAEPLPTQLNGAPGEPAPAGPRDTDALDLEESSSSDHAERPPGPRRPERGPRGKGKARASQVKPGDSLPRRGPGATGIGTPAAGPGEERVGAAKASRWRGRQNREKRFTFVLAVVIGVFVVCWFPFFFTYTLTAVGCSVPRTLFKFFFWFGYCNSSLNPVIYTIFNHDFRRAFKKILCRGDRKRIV
# [7] = biological target: Growth hormone secretagogue receptor type 1 (Homo sapiens, UniProt Q92847)
# Motilin receptor = Motilin receptor (Homo sapiens, UniProt O43193)
# [8] = biological target: T3, Alpha-2A adrenergic receptor; format: functional, cell-based; remark: listed apart in the source
# [9] = biological target: Delta-type opioid receptor (Homo sapiens, UniProt P41143)
# Adenosine receptor A3 = biological target: T4, Adenosine receptor A3 (Homo sapiens, UniProt P0DMS8)
# T4 sequence (P0DMS8 whole entry): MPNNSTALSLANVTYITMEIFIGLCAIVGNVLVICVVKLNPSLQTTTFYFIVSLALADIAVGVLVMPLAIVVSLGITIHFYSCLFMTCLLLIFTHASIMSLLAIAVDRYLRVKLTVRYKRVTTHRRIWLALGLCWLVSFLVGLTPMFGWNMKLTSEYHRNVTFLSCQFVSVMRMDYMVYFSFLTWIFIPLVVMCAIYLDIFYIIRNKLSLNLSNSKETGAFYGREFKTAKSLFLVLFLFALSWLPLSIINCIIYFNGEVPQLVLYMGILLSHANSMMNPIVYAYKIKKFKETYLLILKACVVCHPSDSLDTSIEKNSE
# [10] = biological target: T5, Cholecystokinin receptor type A (Homo sapiens, UniProt P32238)
# T5 sequence (P32238 whole entry): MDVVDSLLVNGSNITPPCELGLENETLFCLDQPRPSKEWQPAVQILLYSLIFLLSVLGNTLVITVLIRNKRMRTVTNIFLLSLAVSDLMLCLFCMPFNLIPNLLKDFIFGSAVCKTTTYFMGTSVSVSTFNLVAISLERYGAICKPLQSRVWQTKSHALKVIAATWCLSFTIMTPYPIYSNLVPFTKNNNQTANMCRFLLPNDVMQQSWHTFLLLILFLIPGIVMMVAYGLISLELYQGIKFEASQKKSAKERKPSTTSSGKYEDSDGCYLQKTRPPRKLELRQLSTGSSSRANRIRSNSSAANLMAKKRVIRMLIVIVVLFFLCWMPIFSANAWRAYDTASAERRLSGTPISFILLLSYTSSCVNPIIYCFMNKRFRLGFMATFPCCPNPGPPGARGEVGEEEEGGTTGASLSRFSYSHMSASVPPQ
# [11] = biological target: 5-hydroxytryptamine receptor 2B (Homo sapiens, UniProt P41595); format: functional, cell-based
# Note: assay procedure not described here.
# Chain of D(1A) dopamine receptor (P21728 whole entry): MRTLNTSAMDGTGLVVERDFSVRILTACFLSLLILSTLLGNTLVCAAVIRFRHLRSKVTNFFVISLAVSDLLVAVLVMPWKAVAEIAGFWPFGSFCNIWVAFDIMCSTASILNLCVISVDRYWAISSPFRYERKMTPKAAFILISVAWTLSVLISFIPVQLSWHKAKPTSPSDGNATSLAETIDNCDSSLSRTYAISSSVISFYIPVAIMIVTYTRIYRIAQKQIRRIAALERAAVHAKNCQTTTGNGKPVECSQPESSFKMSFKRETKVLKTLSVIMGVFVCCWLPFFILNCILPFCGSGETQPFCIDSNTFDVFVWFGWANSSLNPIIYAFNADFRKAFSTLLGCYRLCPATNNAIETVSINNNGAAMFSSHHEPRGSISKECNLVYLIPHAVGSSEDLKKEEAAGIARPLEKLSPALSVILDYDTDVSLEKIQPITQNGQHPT
# Chain of Melanocortin receptor 3 (P41968 whole entry): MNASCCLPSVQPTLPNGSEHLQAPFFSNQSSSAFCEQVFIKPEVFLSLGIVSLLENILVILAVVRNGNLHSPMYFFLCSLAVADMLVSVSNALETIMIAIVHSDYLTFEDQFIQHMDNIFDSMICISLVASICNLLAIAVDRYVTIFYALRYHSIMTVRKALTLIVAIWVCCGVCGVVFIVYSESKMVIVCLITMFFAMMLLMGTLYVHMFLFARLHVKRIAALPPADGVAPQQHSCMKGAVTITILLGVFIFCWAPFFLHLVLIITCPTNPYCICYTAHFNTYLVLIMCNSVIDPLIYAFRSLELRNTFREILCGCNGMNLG
# Chain of cGMP-inhibited 3',5'-cyclic phosphodiesterase 3A (Q14432 whole entry): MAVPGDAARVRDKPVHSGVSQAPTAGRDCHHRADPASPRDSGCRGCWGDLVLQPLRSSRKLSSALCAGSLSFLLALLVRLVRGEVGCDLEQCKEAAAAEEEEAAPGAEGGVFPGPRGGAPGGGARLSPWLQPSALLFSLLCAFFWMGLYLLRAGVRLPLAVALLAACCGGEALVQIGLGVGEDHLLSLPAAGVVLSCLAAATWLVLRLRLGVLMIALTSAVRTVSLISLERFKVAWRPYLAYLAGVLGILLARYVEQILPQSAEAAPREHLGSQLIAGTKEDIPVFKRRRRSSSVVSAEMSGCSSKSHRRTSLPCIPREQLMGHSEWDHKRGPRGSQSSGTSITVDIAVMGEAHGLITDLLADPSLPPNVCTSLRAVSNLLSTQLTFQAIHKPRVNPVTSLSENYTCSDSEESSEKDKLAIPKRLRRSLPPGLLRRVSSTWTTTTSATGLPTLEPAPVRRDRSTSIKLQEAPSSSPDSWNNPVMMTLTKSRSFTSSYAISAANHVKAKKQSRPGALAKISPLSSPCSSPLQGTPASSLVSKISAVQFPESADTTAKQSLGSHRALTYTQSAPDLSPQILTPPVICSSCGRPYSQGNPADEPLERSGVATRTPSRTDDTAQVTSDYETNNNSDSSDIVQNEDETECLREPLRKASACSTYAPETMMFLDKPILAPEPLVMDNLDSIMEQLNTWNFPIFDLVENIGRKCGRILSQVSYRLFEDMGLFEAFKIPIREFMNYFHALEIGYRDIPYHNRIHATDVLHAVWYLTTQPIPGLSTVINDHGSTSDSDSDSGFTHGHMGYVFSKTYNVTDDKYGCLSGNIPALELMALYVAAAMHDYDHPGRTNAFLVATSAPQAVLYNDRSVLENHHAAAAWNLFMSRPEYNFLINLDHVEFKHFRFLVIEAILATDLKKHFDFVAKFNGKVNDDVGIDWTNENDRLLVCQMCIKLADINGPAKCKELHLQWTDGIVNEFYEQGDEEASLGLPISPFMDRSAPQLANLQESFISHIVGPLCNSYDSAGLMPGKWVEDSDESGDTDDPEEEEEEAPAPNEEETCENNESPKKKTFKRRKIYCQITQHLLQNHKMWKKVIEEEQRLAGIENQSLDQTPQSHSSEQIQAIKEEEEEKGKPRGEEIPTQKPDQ
# Chain of Delta-type opioid receptor (P41143 whole entry): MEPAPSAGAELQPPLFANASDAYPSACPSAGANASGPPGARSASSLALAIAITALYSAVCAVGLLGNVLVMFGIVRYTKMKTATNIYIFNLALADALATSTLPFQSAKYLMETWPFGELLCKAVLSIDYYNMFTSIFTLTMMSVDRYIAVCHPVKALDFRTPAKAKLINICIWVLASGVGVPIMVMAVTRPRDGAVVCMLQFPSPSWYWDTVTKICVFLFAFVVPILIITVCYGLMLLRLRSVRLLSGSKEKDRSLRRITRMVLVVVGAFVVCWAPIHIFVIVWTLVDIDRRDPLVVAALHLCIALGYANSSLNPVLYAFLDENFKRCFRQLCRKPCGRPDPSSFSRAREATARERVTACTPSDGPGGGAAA
# Chain of Growth hormone secretagogue receptor type 1 (Q92847 whole entry): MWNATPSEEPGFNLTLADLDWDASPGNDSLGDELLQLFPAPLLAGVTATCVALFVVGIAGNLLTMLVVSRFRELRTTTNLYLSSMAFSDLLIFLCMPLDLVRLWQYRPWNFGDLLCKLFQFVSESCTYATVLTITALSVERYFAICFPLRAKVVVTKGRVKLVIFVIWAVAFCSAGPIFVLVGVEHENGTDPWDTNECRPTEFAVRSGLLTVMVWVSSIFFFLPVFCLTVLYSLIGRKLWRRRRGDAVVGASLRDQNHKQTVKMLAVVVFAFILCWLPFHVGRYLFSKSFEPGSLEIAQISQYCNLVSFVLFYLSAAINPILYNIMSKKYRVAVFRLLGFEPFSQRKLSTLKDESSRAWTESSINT
# Chain of 3',5'-cyclic-AMP phosphodiesterase 4D (Q08499 whole entry): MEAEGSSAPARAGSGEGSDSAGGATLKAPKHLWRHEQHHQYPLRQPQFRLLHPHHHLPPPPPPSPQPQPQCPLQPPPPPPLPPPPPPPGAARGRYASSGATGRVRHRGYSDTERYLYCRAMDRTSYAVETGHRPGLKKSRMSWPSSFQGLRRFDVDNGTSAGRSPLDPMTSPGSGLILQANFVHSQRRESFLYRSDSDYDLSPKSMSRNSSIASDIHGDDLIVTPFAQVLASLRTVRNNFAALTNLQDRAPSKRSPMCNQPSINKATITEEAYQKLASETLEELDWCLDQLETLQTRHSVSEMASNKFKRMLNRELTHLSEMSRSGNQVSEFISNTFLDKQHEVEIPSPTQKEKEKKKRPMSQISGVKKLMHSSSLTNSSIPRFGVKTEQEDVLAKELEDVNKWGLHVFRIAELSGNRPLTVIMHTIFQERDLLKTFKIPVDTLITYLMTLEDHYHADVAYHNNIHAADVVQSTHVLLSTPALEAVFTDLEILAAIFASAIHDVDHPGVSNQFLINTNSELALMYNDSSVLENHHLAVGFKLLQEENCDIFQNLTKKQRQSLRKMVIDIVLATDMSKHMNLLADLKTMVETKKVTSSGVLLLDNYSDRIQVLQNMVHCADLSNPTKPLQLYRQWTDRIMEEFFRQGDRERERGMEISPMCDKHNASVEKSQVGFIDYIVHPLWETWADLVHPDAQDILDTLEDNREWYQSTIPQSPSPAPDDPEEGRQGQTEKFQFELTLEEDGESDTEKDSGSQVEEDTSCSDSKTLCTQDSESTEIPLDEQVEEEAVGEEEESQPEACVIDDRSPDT
# Chain of 5-hydroxytryptamine receptor 2B (P41595 whole entry): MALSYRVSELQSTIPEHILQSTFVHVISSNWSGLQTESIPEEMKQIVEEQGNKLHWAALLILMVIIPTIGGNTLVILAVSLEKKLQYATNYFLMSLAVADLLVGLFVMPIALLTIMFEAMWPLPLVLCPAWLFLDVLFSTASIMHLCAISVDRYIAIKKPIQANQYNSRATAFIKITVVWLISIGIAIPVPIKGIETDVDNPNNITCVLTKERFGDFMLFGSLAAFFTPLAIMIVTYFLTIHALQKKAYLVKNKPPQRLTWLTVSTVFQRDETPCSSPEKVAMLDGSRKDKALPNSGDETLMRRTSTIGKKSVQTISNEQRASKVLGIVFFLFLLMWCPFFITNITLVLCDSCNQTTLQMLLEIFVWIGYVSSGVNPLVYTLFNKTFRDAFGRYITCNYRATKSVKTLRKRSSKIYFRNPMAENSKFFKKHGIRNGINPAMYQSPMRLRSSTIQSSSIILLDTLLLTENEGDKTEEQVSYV
# Chain of Motilin receptor (O43193 whole entry): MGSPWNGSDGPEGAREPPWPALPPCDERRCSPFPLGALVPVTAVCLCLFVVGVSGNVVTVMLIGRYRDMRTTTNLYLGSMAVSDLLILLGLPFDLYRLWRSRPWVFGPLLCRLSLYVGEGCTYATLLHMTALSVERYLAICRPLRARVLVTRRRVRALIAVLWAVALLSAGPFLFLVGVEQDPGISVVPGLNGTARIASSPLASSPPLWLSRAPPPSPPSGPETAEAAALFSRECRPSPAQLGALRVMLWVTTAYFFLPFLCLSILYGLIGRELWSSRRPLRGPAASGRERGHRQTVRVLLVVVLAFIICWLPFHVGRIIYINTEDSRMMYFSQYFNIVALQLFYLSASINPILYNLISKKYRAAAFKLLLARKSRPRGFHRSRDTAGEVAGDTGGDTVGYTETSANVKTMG
structure (smiles),measurement,setting,value
OC[C@H]1NC[C@H](O)[C@@H](O)[C@H]1O,AC50,[1],> 30 µM
O=C(O)[C@@H](S)[C@@H](S)C(=O)O,AC50,[1],> 30 µM
CC#CC(=O)N1CCC[C@H]1c1nc(-c2ccc(C(=O)Nc3ccccn3)cc2)c2c(N)nccn12 [ACALABRUTINIB],AC50,[1],> 30 µM
C=CCOc1ccc(CC(=O)O)cc1Cl [ALCLOFENAC],AC50,[1],> 30 µM
CN(C)CCC=C1c2ccccc2CCc2ccccc21 [AMITRIPTYLINE],AC50,[2],> 30 µM
same,AC50,D(1A) dopamine receptor,> 10 µM
same,AC50,[3],0.15 µM
same,AC50,Melanocortin receptor 3,23 µM
same,AC50,[4],> 30 µM
same,AC50,[5],8.7 µM
same,AC50,[6],9.1 µM
same,AC50,[7],> 30 µM
same,AC50,Motilin receptor,> 30 µM
same,AC50,[8],> 10 µM
same,AC50,[9],> 30 µM
same,AC50,Adenosine receptor A3,14.1 µM
same,AC50,[10],> 30 µM
CC(C)NCC(O)COc1ccc(CC(N)=O)cc1 (configuration not stated) [ATENOLOL],AC50,[2],> 30 µM
same,AC50,[3],> 30 µM
same,AC50,Melanocortin receptor 3,> 30 µM
same,AC50,[4],> 30 µM
same,AC50,[5],> 30 µM
same,AC50,[6],> 30 µM
same,AC50,[7],> 30 µM
same,AC50,Motilin receptor,> 30 µM
same,AC50,[8],> 30 µM
same,AC50,[9],> 30 µM
same,AC50,Adenosine receptor A3,> 30 µM
same,AC50,[10],> 30 µM
NC(=O)C1(N2CCCCC2)CCN(CCCN2c3ccccc3CCc3ccccc32)CC1 [CARPIPRAMINE],AC50,[1],2.2 µM
O=C(Cc1cccs1)N[C@@H]1C(=O)N2C(C(=O)[O-])=C(C[n+]3ccccc3)CS[C@H]12 [CEPHALORIDINE],AC50,[2],> 30 µM
same,AC50,D(1A) dopamine receptor,> 30 µM
same,AC50,[3],> 30 µM
same,AC50,[4],> 30 µM
same,AC50,[5],> 30 µM
same,AC50,[6],> 30 µM
same,AC50,[11],> 30 µM
same,AC50,[1],> 30 µM
same,AC50,[8],> 30 µM
same,AC50,[9],> 30 µM
CN1CCN(C(c2ccccc2)c2ccc(Cl)cc2)CC1 (configuration not stated) [CHLORCYCLIZINE],AC50,[1],4.64 µM
CN(C)CCCC1(c2ccc(F)cc2)OCc2cc(C#N)ccc21 (configuration not stated) [CITALOPRAM],AC50,[2],> 30 µM
same,AC50,Melanocortin receptor 3,> 30 µM
same,AC50,[4],> 30 µM
same,AC50,[5],> 30 µM
same,AC50,[6],> 10 µM
same,AC50,[11],> 30 µM
same,AC50,[7],> 30 µM
same,AC50,Motilin receptor,> 10 µM
same,AC50,[8],> 10 µM
same,AC50,[9],> 30 µM
same,AC50,Adenosine receptor A3,> 30 µM
same,AC50,[10],> 30 µM
CCCCCCCCCCCCCCCC(=O)OC[C@H](COP(=O)([O-])OCC[N+](C)(C)C)OC(=O)CCCCCCCCCCCCCCC [COLFOSCERIL PALMITATE],AC50,[1],> 30 µM
O=P1(N(CCCl)CCCl)NCCCO1 (configuration not stated) [CYCLOPHOSPHAMIDE ANHYDROUS],AC50,[1],> 30 µM
CC(C)Nc1cccnc1N1CCN(C(=O)c2cc3cc(NS(C)(=O)=O)ccc3[nH]2)CC1 [DELAVIRDINE],AC50,[1],16 µM
C[C@@H](CN1CC(=O)NC(=O)C1)N1CC(=O)NC(=O)C1 [DEXRAZOXANE],AC50,[1],> 30 µM
O=c1[nH]c2ccccc2n1CCN1CCN(c2cccc(C(F)(F)F)c2)CC1 [FLIBANSERIN],AC50,[1],13 µM
O=c1[nH]cc(F)c(=O)[nH]1 [FLUOROURACIL],AC50,Melanocortin receptor 3,> 30 µM
same,AC50,[7],> 30 µM
same,AC50,Motilin receptor,> 30 µM
same,AC50,[1],> 30 µM
same,AC50,Adenosine receptor A3,> 30 µM
same,AC50,[10],> 30 µM
O=C(O)[C@H](O)[C@@H](O)[C@H](O)[C@H](O)CO [GLUCONIC ACID],AC50,[1],> 30 µM
N=C(N)NCC1COc2ccccc2O1 (configuration not stated) [GUANOXAN],AC50,[1],> 30 µM
N#Cc1ccnc(N2C(=O)CC[C@H]2C(=O)N(c2cncc(F)c2)[C@H](C(=O)NC2CC(F)(F)C2)c2ccccc2Cl)c1 [IVOSIDENIB],AC50,[1],> 30 µM
CNC1(c2ccccc2Cl)CCCCC1=O (configuration not stated) [KETAMINE],AC50,[1],> 30 µM
CC(=O)NC[C@H]1CN(c2ccc(N3CCOCC3)c(F)c2)C(=O)O1 [LINEZOLID],AC50,[2],> 30 µM
same,AC50,[3],> 30 µM
same,AC50,Melanocortin receptor 3,> 30 µM
same,AC50,[4],> 30 µM
same,AC50,[5],> 30 µM
same,AC50,[6],> 30 µM
same,AC50,[7],> 30 µM
same,AC50,[1],> 30 µM
same,AC50,[8],> 30 µM
same,AC50,[9],> 30 µM
same,AC50,Adenosine receptor A3,> 30 µM
O=C1[C@@H]2[C@H]3CC[C@H](C3)[C@@H]2C(=O)N1C[C@@H]1CCCC[C@H]1CN1CCN(c2nsc3ccccc23)CC1 [LURASIDONE],AC50,[2],> 30 µM
same,AC50,[3],25 µM
same,AC50,Melanocortin receptor 3,> 30 µM
same,AC50,[4],> 30 µM
same,AC50,[5],> 30 µM
same,AC50,[11],> 30 µM
same,AC50,[7],> 30 µM
same,AC50,Motilin receptor,> 30 µM
same,AC50,[9],> 30 µM
same,AC50,Adenosine receptor A3,9.9 µM
CCCCCCO[C@@H](C)c1cccc(-c2csc(NC(=O)c3cc(Cl)c(/C=C(\C)C(=O)O)c(Cl)c3)n2)c1OC [LUSUTROMBOPAG],AC50,[1],4.9 µM
Cc1cc(C)cc(OCC2CNC(=O)O2)c1 (configuration not stated) [METAXALONE],AC50,[1],> 30 µM
CO[C@@]1(NC(=O)C(C(=O)O)c2ccc(O)cc2)C(=O)N2C(C(=O)O)=C(CSc3nnnn3C)CO[C@@H]21 (some centres not stated) [MOXALACTAM],AC50,[1],> 30 µM
CCCCCCCC/C=C\CCCCCCCC(=O)O [OLEIC ACID],AC50,[1],> 30 µM
C#CCN(C)Cc1ccccc1 [PARGYLINE],AC50,[2],> 30 µM
same,AC50,D(1A) dopamine receptor,> 30 µM
same,AC50,[3],> 30 µM
same,AC50,[4],> 30 µM
same,AC50,[5],> 30 µM
same,AC50,[6],> 30 µM
same,AC50,[11],> 30 µM
same,AC50,[1],> 30 µM
same,AC50,[8],> 30 µM
same,AC50,[9],> 30 µM
CC1=C(C/C=C(\C)CCC[C@H](C)CCC[C@H](C)CCCC(C)C)C(=O)c2ccccc2C1=O [PHYTONADIONE],AC50,[1],> 30 µM
NC(=O)C1(N2CCCCC2)CCN(CCCC(=O)c2ccc(F)cc2)CC1 [PIPAMPERONE],AC50,[1],1.9 µM
COc1cccc2c1C(=O)c1c(O)c3c(c(O)c1C2=O)C[C@@](O)(C(=O)CO)C[C@@H]3O[C@H]1C[C@H](N)[C@H](O[C@@H]2CCCCO2)[C@H](C)O1 [PIRARUBICIN],AC50,[1],> 30 µM
CC(C)(Oc1ccc(Cl)cc1)C(=O)NC(=O)NCN1CCOCC1 [PLAFIBRIDE],AC50,[1],> 30 µM
CC(C)NC[C@H](O)COc1ccc(O)cc1 [PRENALTEROL],AC50,[1],> 30 µM
CN1CCC(N(Cc2cccs2)c2ccccc2)CC1 [THENALIDINE],AC50,[1],2.9 µM
Cc1ccc(C(C)C)c(O)c1 [THYMOL],AC50,[3],170 µM
same,AC50,[1],> 30 µM
Cc1cccc(C)c1NC(=O)c1cc(S(N)(=O)=O)c(Cl)cc1O [XIPAMIDE],AC50,[1],> 30 µM
